Data published in patent EP2272817A1, “PAI-1 INHIBITOR” (Institute of Medicinal Molecular Design, Inc., priority 2008, dated 2009).
Where two headings read alike, the source gives them in different places.

Legend:
recombinant human PAI-1 [1] = biological target: T1, recombinant human PAI-1 (Homo sapiens, UniProt P05121); assay: Test Example 2: Human PAI-1 Inhibitory Activity (pH 7.4 HEPES buffer, 10 minutes incubation with two-chain tPA); assay type: biochemical; set-up: purchased Molecular Innovations, Inc; conditions: read-out: Inhibition Rate of PAI-1 Activity (%)
Protocol: 0.1 M HEPES, 0.1 M NaCl. 1 mM EDTA. 0.1 % Polyethylene glycol 8,000 (Hampton Research Corporation),
2 mM Dimethyldecylphoshine oxide [Apo-10] (Fluka Corporation)

recombinant human PAI-1 [2] = biological target: T1, recombinant human PAI-1; assay: biochemical
Protocol: To this solution, 6 µl of 80 nM recombinant human PAI-1 (Molecular Innovations, Inc.) solution prepared with Tris buffer was added, and the plate was incubated for 5 minutes at room temperature. Furthermore, 30 µl of 800 IU/ml two-chain tPA (Activity Standard; American diagnostica, inc.) prepared with Tris buffer was added, and the mixed solution was incubated for 15 minutes at room temperature. Then, 30 µl of 400 µM fluorogenic substrate (Pyr-Gly-Arg-MCA; Peptide Institute, Inc.) for tPA prepared with Tris buffer was added and reacted for 30 minutes at room temperature.
50 mM Tris, 150 mM NaCl, 10 µg/ml BSA, 0.01 % Tween80 (SIGMA-ALDRICH Corporation)

recombinant human PAI-1 [3] = biological target: T1, recombinant human PAI-1; assay: Test Example 4: Human PAI-1 Inhibitory Activity (amount of PAI-1 bound to plate-coated one-chain tPA, ELISA); assay type: biochemical; set-up: purchased Molecular Innovations, Inc; conditions: human PAI-1 bound to tPA, read-out: Inhibition Rate of PAI-1 Activity (%); for inhibition at 0.3 µM: Compound Concentration 0.3µM; for inhibition at 1 µM: Compound Concentration 1µM; for inhibition at 3 µM: Compound Concentration 3µM
Protocol: 100 µl of tPA solution, where one-chain recombinant tPA (hereinafter reffered to as tPA; American diagnostica, inc.) had been diluted with Buffer A to acheive a concentration of 10 µg/ml, was added to each well of a 96-well plate (Nunc Maxisorp), and the plate was incubated for one night at 4 °C to be coated with tPA. Then, after suction of tPA solution from the 96-well plate, the plate was rinsed successively with Buffer A and Buffer B. To Buffer B, solutions of the compound according to the present invention dissolved with DMSO (final DMSO concentration: 0.2 %) and recombinant human PAI-1 (Molecular Innovations, Inc.) were added. The mixtures were blended so that the final concentrations would be 0.1 to 3.0 µM and 50 ng/ml respectively, and were incubated for 15 minutes on ice. These mixed solutions were added to the rinsed 96-well plate at 100 µl/well, and incubated for 60 minutes at room temperature. To prepare a calibration curve, PAI-1 solutions without the compound according to the present invention (solutions where the final concentrations being 100, 50, 25, 12.5, 6.25, 3.13, or 1.56 ng/ml PAI-1) were added at 100 µl/well, and the plate was incubated for 60 minutes at room temperature, as standard.
After incubation, the reaction mixture was removed by suction, and each well was rinsed with Wash Buffer. Next, anti-human PAI-1 monoclonal antibody (PROGEN Inc.) diluted with Buffer C to be 3.0 µg/ml was added to the 96-well plate at 100 µl/well, and the plate was incubated for 1 hour at room temperature. After rinsing each well with Wash Buffer, alkaline phosphatase-labeled goat anti-mouse IgG (H+L) (Jackson ImmunoResearch, Inc.) diluted with Buffer D to be 0.12 µg/ml was added at 100 µl/well, and the plate was incubated for 1 hour at room temperature. After rinsing each well with Wash Buffer, 1.0 mg/ml p-Nitrophenyl Phosphate (SIGMA) was added to the 96-well plate at 100 µl/well to start the reaction. After 30 to 60 minutes, 25 µl of 0.5 N NaOH was added to stop the reaction, and the absorbance was measured at 405 nm using a multiplate reader (GENios; TECAN G.M.B.H.).
Based on the calibration curve prepared from the standard wells, amounts of PAI-1 bound to tPA in the wells that had been treated with the compound according to the present invention were calculated, and the PAI-1 inhibition rates by the compounds according to the present invention were obtained by the following equation. [API-1InhibitionRate(%)] = [1-(amountofPAI-1boundtotPaonthewellbytreatmentwiththecompondaccordingtothepresentinvention)/(amountofPAI-1boundtotPAonthewellbytreatmentwithPAI-1solutionnotincledingthecompondaccordingtotheinvention(solution having the final concentration of 50 nb/ml PAI-1)] × 100 [formula] • <Composition of Buffer A> 0.1 M Tris-HCl, 150 mM NaCl, pH 7.7 • <Composition of Buffer B> 50 mM sodium phosphate, 0.1 M NaCl, 1 mM EDTA, pH 6.6 • <Composition of Buffer C> 50 mM sodium phosphate, 100 mM NaCl, pH 7.4 • <Composition of Buffer D> 0.01 M Tris-HCl, 0.25 M NaCl, pH 8.0 • <Compositon of Wash Buffer> 0.05 % Tween 20, 0.1 % BSA in Buffer A • <Composition of p-Nitrophenyl Phosphate solution> 1 M Diethanolamine 0.5 mM MgCl2, p-Nitrophenyl phosphate, pH 9.8

recombinant rat PAI-1 = biological target: T2, recombinant rat PAI-1 (Rattus norvegicus, UniProt P20961); assay: biochemical; conditions: read-out: Inhibition Rate of PAI-1 Activity (%)
T2 sequence (P20961 24-402): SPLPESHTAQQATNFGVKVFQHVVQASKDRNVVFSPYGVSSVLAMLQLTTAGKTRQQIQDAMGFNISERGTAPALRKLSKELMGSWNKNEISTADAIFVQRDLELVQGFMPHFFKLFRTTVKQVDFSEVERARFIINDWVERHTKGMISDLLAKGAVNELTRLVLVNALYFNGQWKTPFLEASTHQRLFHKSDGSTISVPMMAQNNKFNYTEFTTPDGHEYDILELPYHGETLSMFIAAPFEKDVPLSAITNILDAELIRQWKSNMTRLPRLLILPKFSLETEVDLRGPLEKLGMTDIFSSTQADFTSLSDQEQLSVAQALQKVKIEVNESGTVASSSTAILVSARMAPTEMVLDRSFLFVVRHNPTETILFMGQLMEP

[4] = read-out: Inhibition Rate of PAI-1 Activity (%), Compound Concentration 5µM
[5] = read-out: Inhibition Rate of PAI-1 Activity (%), Compound Concentration 10µM

T1 sequence (P05121 24-402): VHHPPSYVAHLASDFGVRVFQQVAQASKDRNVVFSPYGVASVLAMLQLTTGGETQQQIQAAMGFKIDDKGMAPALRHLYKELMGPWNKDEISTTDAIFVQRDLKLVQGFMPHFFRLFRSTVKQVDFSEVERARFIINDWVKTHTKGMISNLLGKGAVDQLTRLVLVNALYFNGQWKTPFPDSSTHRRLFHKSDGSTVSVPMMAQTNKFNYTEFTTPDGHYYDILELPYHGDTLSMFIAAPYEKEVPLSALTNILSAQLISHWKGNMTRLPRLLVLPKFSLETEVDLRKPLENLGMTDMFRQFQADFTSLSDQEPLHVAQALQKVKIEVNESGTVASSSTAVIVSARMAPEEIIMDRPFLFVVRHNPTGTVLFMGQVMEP

SMILES	inhibition at 0.1 µM (recombinant human PAI-1 [1])	inhibition at 0.3 µM (recombinant human PAI-1 [1])	inhibition at 1 µM (recombinant human PAI-1 [1])	inhibition at 3 µM (recombinant human PAI-1 [1])	inhibition at 5 µM (recombinant human PAI-1 [2]; [4])	inhibition at 10 µM (recombinant human PAI-1 [2]; [5])	inhibition at 0.3 µM (recombinant human PAI-1 [3])	inhibition at 1 µM (recombinant human PAI-1 [3])	inhibition at 3 µM (recombinant human PAI-1 [3])	inhibition at 0.3 µM (recombinant rat PAI-1)	inhibition at 1 µM (recombinant rat PAI-1)	inhibition at 3 µM (recombinant rat PAI-1)	inhibition at 25 µM (recombinant human PAI-1 [2]; read-out: Inhibition Rate of PAI-1 Activity (%), Compound Concentration 25µM)	inhibition at 10 µM (recombinant rat PAI-1)	inhibition at 5 µM (recombinant human PAI-1 [2]; read-out: Inhibition Rate of PAI Activity (%), Compound Concentration 5µM)	inhibition at 10 µM (recombinant human PAI-1 [2]; read-out: Inhibition Rate of PAI Activity (%), Compound Concentration 10µM)
CCCCC(c1ccc(C(C)(C)C)cc1)N(C(=O)C(=O)O)c1ccc(-c2ccc(OC(F)(F)F)cc2)cc1 (centres unmarked) [Compound 221]	0%	6%	55%	> 99%	80%	86%	0%	13%	38%	10%	37%	89%	–	–	–	–
CC(C)(C)c1ccc(CN(C(=O)C(=O)O)c2ccc(Oc3ccc(OC(F)(F)F)cc3)cc2C(F)(F)F)cc1 [Compound 174]	0%	0%	26%	96%	61%	92%	0%	7%	32%	0%	11%	76%	91%	94%	–	–
CC(C)(C)c1ccc(Oc2ccc(-c3ccc(OC(F)(F)F)cc3)cc2CCC(=O)O)cc1 [Compound 13]	5%	8%	36%	99%	–	–	7%	14%	41%	0%	14%	69%	–	> 99%	83%	93%
CCCCCOc1ccc(-c2ccc(OC(F)(F)F)cc2)cc1N(CCCCc1ccccc1)C(=O)C(=O)O [Compound 226]	0%	17%	89%	99%	85%	92%	11%	26%	65%	9%	49%	92%	–	> 99%	–	–
CCCCOc1ccc(-c2ccc(OC(F)(F)F)cc2)cc1N(Cc1ccc(C(C)(C)C)cc1)C(=O)C(=O)O [Compound 189]	4%	2%	60%	97%	87%	95%	16%	30%	70%	9%	32%	93%	–	> 99%	–	–
